Assay results reported in US5981517A, “Androstene derivatives” (priority 1997, dated 1999).

Key:
[1] = tested on: forearm of a human volunteer; assay: Further human vasoconstriction testing, Method 2; type: in vivo; parameters: key: +: "positive" (pallor could be observed); -: "negative" (pallor could not be detected)
Method: The mixtures, in 20 μL amounts, were applied to circular patches (1/4 inch diameter). The patches were applied to the forearm of a human volunteer, and covered with a water impervious film for 3 hr. Vasoconstriction activity was judged by the appearance of pallor at various time points after the patches were removed. Tests were performed on the same person and the results were obtained from 2-4 observations.
In TABLE XIV above, "-" means a negative result was obtained. In other tables herein, "-" means not tested.
In TABLE XIV above, the results of a simpler method of judging vasoconstriction activity was used in which only "positive" (pallor could be observed) or "negative" (pallor could not be detected) results were recorded.

[2] = tested on: forearm of a human volunteer; assay: Human vasoconstriction test; type: in vivo; parameters: key: 0 = normal skin, 4 = very intense pallor; settings: 10 mM
Method: Test compounds (10 mM) were dissolved in ethanol/propylene glycol (9/1) solution, and 50 μL of the mixtures were applied to circular patches, 8 mm in diameter. After ethanol evaporation, the patches were applied to the forearm of a human volunteer, and covered with a water impervious film for 3 hours. The intensity of vasoconstriction was judged 1, 8, 17 and 24 hours after the patches were removed.
The grading scale for the vasoconstriction activity was as follows: 0, normal skin; 1, slight pallor of indistinct outline; 2, pallor with at least two corners outlined; 3, even pallor with a clear outline of the application sites; 4, very intense pallor.

physchem = type: physicochemical
Method: (§1) A Whatman C-18 column (4.6 mm×108 mm) was connected to a Spectra-Physics component system consisting of a SP 8810 precision isocratic pump, Rheodyne 7125 injector (20 μL injection volume), SP 8450 UV/VIS variable wavelength detector (230 nm), and SP 4290 integrator. The system was operated at ambient temperature. The mobile phase consisted of acetonitrile, acetic acid and water (60:0.1:40). At a flow rate of 1.0 mL/minute, the retention times for the test compounds were 4.74 minutes for Compound A, 5.84 minutes for Compound B, 6.93 minutes for Compound C, and 5.72 minutes for Compound D.
(§2) HPLC peak area and peak height were used as a measure of the concentration of the test compounds and plotted against time to evaluate the disappearance rates of the compounds. The stability was determined by measuring the pseudo-first order rate constant (kobs in min^-1) or half-life (t1/2 in min) of disappearance of the test compound in buffer. […].
The stabilities of test compounds A, B, C, and D, were tested in buffer solutions in the pH range of 4.0 to 9.0. A 0.1 mL portion of each compound at a concentration of 1 mM was mixed with 10 mL phosphate buffer (made by combining 0.05 M of NaH2 PO4 and 0.05 M of Na2 HPO4 with 0.05 M of NaCl) to give a final concentration of 0.01 mM. The mixtures were incubated at 37° C., and samples were taken and injected in the HPLC system at appropriate time intervals. pH profiles of each test compound are shown in TABLE III below. […]

[3] = Stability in lung homogenate; type: in vitro ADME; settings: rat, lung homogenate
Method: as §1, §2
(§3) A 0.2 mL aliquot of stock solution (1 mM) of each of the test compounds A, B, C, and D, was added to 2 mL of each biological media (whole heparinized rat blood, 20% rat liver homogenate, and 6-volume diluted lung homogenate in isotonic buffer of pH 7.40 made by combining 0.05 M of Na2 HPO4 and 0.05 M of NaH2 PO4 with 0.05 M of NaCl), which was kept in a 37° C. water bath, to obtain a final concentration of 0.1 mM in each biological medium. Samples of 0.1 mL were taken at appropriate time intervals for 2 hours (at 0, 3, 5, 10, 20, 40, 60, 90 and 120 minutes) and mixed with 0.2 mL of acetonitrile containing 5% DMSO. Each mixture was centrifuged and the supernatant was injected in the HPLC.

[4] = Stability in liver homogenate; type: in vitro ADME, rat; settings: rat, liver homogenate
Method: as §1, §2, §3

Stability in rat blood = type: in vitro ADME; settings: rat, blood
Method: as §1, §2, §3

Stability in rat plasma = type: in vitro ADME; settings: rat, plasma
Method: (§4) A Waters NOVA-PAK phenyl column was connected to a Spectra-Physics component system consisting of a SP 8810 precision isocratic pump, a Rheodyne 7125 injector (injection volume 20 μL), an SP 8450 UV/VIS variable wavelength detector (operated at 254 nm) and a SP 4270 integrator. […]. The retention times of compound of the invention J and its metabolities L and M were 8.64, 2.70 and 2.45 minutes, respectively. The retention times of compound of the invention I and its metabolites N and 0 were 5.84, 2.70 and 1.81 minutes, respectively. The retention time of cortienic acid was 1.00 minute.
(§5) Freshly collected human or rat plasma was used. An aliquot of 10 mM test compound in ethanol solution was added to prewarmed (37° C.) plasma to yield a final concentration of 100 μM. At appropriate time intervals, samples (0.1 mL) were removed and mixed with 0.2 mL of 5% dimethylsulfoxide/acetonitrile solution. Mixtures were centrifuged and supernatants were analyzed by HPLC. The pseudo-first order rate constant of the disappearance of compound in the biological media was determined by linear regression analysis from the plot of log peak area and peak height versus time.
(§6) Stability was evaluated by the pseudo first-order rate constant (k, hr^-1) and half-life (t1/2, hr) of the disappearance of the test compound in the media.

[5] = Stability in human plasma; type: in vitro ADME; settings: human, plasma
Method: as §4, §5, §6

[6] = aqueous phosphate buffer, pH 4.5
[7] = aqueous phosphate buffer, pH 6.56
[8] = aqueous phosphate buffer, pH 7.4
[9] = aqueous phosphate buffer, pH 8.08

SMILES	Vasoconstriction activity ([1]; 4 Hours, 0.01 mM)	Vasoconstriction activity ([1]; 4 Hours, 0.05 mM)	Vasoconstriction activity ([1]; 4 Hours, 0.1 mM)	Vasoconstriction activity ([1]; 4 Hours, 0.5 mM)	Vasoconstriction activity ([1]; 4 Hours, 1 mM)	Vasoconstriction activity ([1]; 4 Hours, 5 mM)	Vasoconstriction activity ([1]; 8 Hours, 0.01 mM)	Vasoconstriction activity ([1]; 8 Hours, 0.05 mM)	Vasoconstriction activity ([1]; 8 Hours, 0.1 mM)	Vasoconstriction activity ([1]; 8 Hours, 0.5 mM)	Vasoconstriction activity ([1]; 8 Hours, 1 mM)	Vasoconstriction activity ([1]; 8 Hours, 5 mM)	Vasoconstriction activity ([1]; 10-22 hours, 0.01 mM)	Vasoconstriction activity ([1]; 10-22 hours, 0.05 mM)	Vasoconstriction activity ([1]; 10-22 hours, 0.1 mM)	Vasoconstriction activity ([1]; 10-22 hours, 0.5 mM)	Vasoconstriction activity ([1]; 10-22 hours, 1 mM)	Vasoconstriction activity ([1]; 10-22 hours, 5 mM)	Vasoconstriction activity ([1]; 24 Hours, 0.01 mM)	Vasoconstriction activity ([1]; 24 Hours, 0.05 mM)	also measured
CCCCC(=O)O[C@]1(C(=O)CO)[C@@H](C)C[C@H]2[C@@H]3CCC4=CC(=O)C=C[C@]4(C)[C@@]3(F)[C@@H](O)C[C@@]21C [Betamethasone 17-valerate, reference compound]	-	-	-	-	+	+	-	-	-	+	+	+	-	-	-	+	+	+	-	-	Vasoconstriction activity ([1]; 24 Hours, 0.1 mM): -; Vasoconstriction activity ([1]; 24 Hours, 0.5 mM): -; Vasoconstriction activity ([1]; 24 Hours, 1 mM): +; Vasoconstriction activity ([1]; 24 Hours, 5 mM): +
COC(=O)[C@@]1(OC(=O)C(Cl)Cl)CC[C@H]2[C@@H]3CCC4=CC(=O)C=C[C@]4(C)[C@H]3[C@@H](O)C[C@@]21C [Compound A, Methyl 17α-dichloroacetoxy-11β-hydroxyandrosta-1,4-dien-3-one-17β-carboxylate]																					Vasoconstriction activity ([2]; 1 hour after patch removal): 2; Vasoconstriction activity ([2]; 8 hours after patch removal): 4; Vasoconstriction activity ([2]; 17 hours after patch removal): 4; Vasoconstriction activity ([2]; 24 hours after patch removal): 4; half-life (physchem; [6]): > 2880 min; half-life (physchem; [7]): 1150 min; half-life (physchem; [8]): 202 min; half-life (physchem; [9]): 21 min; half-life (physchem; aqueous phosphate buffer, pH 9): 4.25 min; half-life (physchem; buffer, pH 7.4): 202 min; half-life at 100 µM [3]: 43.1 min; half-life at 100 µM [4]: 3.7 min; half-life at 100 µM (Stability in rat blood): 26.9 min
CC(C)OC(=O)[C@@]1(OC(=O)C(Cl)Cl)CC[C@H]2[C@@H]3CCC4=CC(=O)C=C[C@]4(C)[C@H]3[C@@H](O)C[C@@]21C [Compound C, Isopropyl 17α-dichloroacetoxy-11β-hydroxyandrosta-1,4-dien-3-one-17β-carboxylate]																					Vasoconstriction activity ([2]; 1 hour after patch removal): 3; Vasoconstriction activity ([2]; 8 hours after patch removal): 4; Vasoconstriction activity ([2]; 17 hours after patch removal): 3; Vasoconstriction activity ([2]; 24 hours after patch removal): 2; half-life (physchem; [6]): > 2880 min; half-life (physchem; [7]): 680 min; half-life (physchem; [8]): 974 min; half-life (physchem; [9]): 125 min; half-life (physchem; aqueous phosphate buffer, pH 9): 16.2 min; half-life (physchem; buffer, pH 7.4): 658 min; half-life at 100 µM [3]: 170 min; half-life at 100 µM [4]: 29.3 min; half-life at 100 µM (Stability in rat blood): 107 min
C[C@]12C=CC(=O)C=C1CC[C@@H]1[C@@H]2[C@@H](O)C[C@@]2(C)[C@H]1CC[C@]2(OC(=O)C(Cl)Cl)C(=O)OCCl [Compound D, Chloromethyl 17α-dichloroacetoxy-11β-hydroxyandrosta-1,4-dien-3-one-17β-carboxylate]																					Vasoconstriction activity ([2]; 1 hour after patch removal): 3; Vasoconstriction activity ([2]; 8 hours after patch removal): 4; Vasoconstriction activity ([2]; 17 hours after patch removal): 3; Vasoconstriction activity ([2]; 24 hours after patch removal): 2; half-life (physchem; [6]): 841 min; half-life (physchem; [7]): 49.3 min; half-life (physchem; [8]): 13.9 min; half-life (physchem; [9]): 2.9 min; half-life (physchem; aqueous phosphate buffer, pH 9): 1.07 min; half-life (physchem; buffer, pH 7.4): 13.9 min; half-life at 100 µM [3]: 52.4 min; half-life at 100 µM [4]: 7.6 min; half-life at 100 µM (Stability in rat blood): 11.6 min
COC(=O)[C@@]1(OC(=O)C(Cl)Cl)[C@H](C)C[C@H]2[C@@H]3CCC4=CC(=O)C=C[C@]4(C)[C@@]3(F)[C@@H](O)C[C@@]21C [Compound I, methyl 17α-dichloroacetoxy-9α-fluoro-11β-hydroxy-16α-methylandrosta-1,4-dien-3-one-17β-carboxylate]	-	-	+	+	+	+	-	+	+	+	+	+	-	-	+	+	+	+	-	-	Vasoconstriction activity ([1]; 24 Hours, 0.1 mM): +; Vasoconstriction activity ([1]; 24 Hours, 0.5 mM): +; Vasoconstriction activity ([1]; 24 Hours, 1 mM): +; Vasoconstriction activity ([1]; 24 Hours, 5 mM): +; half-life at 100 µM (Stability in rat plasma): 593 min; half-life at 100 µM [5]: 656 min
CCOC(=O)[C@@]1(OC(=O)C(Cl)Cl)[C@H](C)C[C@H]2[C@@H]3CCC4=CC(=O)C=C[C@]4(C)[C@@]3(F)[C@@H](O)C[C@@]21C [J, ethyl 17α-dichloroacetoxy-9α-fluoro-11β-hydroxy-16α-methylandrosta-1,4-dien-3-one-17β-carboxylate]	-	-	-	-	+	+	-	-	-	+	+	+	-	-	-	+	+	+	-	-	Vasoconstriction activity ([1]; 24 Hours, 0.1 mM): -; Vasoconstriction activity ([1]; 24 Hours, 0.5 mM): +; Vasoconstriction activity ([1]; 24 Hours, 1 mM): +; Vasoconstriction activity ([1]; 24 Hours, 5 mM): +; half-life at 100 µM (Stability in rat plasma): 2440 min; half-life at 100 µM [5]: 2410 min
